Data from US9771406B2, “Peptidic dual GLP-1/glucagon receptor agonists derived from exendin-4” (priority 2014, dated 2017).

How the values were obtained:
human GLP-1 receptor = biological target: T1, human GLP-1 receptor (Homo sapiens, UniProt P43220); assay: cAMP response of HEK-293 cells stably expressing human GLP-1 receptor (HTRF); format: cell-based; details: Table 6; cAMP formation; read-out: EC50 hGLP-1R
T1 construct: expressed in transfected cells; host or cells: HEK-293
Description: (§1) cAMP content of cells was determined using a kit from Cisbio Corp. (cat. no. 62AM4PEC) based on HTRF (Homogenous Time Resolved Fluorescence). For preparation, cells were split into T175 culture flasks and grown overnight to near confluency in medium (DMEM/10% FBS). Medium was then removed and cells washed with PBS lacking calcium and magnesium, followed by proteinase treatment with accutase (Sigma-Aldrich cat. no. A6964). Detached cells were washed and resuspended in assay buffer (1×HBSS; 20 mM HEPES, 0.1% BSA, 2 mM IBMX) and cellular density determined. They were then diluted to 400000 cells/ml and 25 μl-aliquots dispensed into the wells of 96-well plates. For measurement, 25 μl of test compound in assay buffer was added to the wells, followed by incubation for 30 minutes at room temperature.
(§2) Potencies of peptidic compounds at the GLP-1, glucagon and GIP receptors were determined by exposing cells expressing human glucagon receptor (hGCG R), human GIP (hGIP R) and human GLP-1 receptor (hGLP-1 R) to the listed compounds at increasing concentrations and measuring the formed cAMP as described in Methods.

human GIP receptor = biological target: T2, human GIP receptor (Homo sapiens, UniProt P48546); assay: cAMP response of HEK-293 cells stably expressing human GIP receptor (HTRF); format: cell-based; details: Table 6; cAMP formation; read-out: EC50 hGIP-R
T2 construct: expressed in transfected cells; host or cells: HEK-293
T2 sequence (P48546 22-466): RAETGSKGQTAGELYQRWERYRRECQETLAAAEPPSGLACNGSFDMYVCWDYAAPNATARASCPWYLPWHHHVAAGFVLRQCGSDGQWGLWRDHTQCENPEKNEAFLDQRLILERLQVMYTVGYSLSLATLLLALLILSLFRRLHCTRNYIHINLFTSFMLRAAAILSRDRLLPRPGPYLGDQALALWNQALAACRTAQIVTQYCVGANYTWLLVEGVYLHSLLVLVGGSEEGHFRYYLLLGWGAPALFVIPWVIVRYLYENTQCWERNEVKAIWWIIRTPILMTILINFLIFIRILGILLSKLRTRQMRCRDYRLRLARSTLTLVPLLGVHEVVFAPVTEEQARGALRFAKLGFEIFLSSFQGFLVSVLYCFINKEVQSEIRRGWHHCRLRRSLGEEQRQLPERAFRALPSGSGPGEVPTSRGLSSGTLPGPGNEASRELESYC
Description: as §1, §2

human glucagon receptor = biological target: T3, human glucagon receptor (Homo sapiens, UniProt P47871); assay: cAMP response of HEK-293 cells stably expressing human glucagon receptor (HTRF); format: cell-based; details: Table 6; cAMP formation; read-out: EC50 hGlucagon-R
T3 construct: expressed in transfected cells; host or cells: HEK-293
T3 sequence (P47871 26-477): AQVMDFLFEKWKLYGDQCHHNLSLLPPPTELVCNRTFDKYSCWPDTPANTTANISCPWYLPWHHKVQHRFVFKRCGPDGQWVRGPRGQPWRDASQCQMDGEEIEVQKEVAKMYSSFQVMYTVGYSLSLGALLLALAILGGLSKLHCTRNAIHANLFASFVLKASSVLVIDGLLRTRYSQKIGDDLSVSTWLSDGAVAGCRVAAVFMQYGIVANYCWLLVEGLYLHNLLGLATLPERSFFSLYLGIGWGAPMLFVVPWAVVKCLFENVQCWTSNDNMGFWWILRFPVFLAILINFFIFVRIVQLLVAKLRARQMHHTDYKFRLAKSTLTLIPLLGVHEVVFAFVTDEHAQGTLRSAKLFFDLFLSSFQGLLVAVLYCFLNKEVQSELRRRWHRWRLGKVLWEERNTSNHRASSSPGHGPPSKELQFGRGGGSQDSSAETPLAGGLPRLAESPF
Description: as §1, §2

[1] = Solubility testing of exendin-4 derivatives (HPLC-UV of supernatant); format: physicochemical
Description: Prior to the testing of solubility and stability of a peptide batch, its purity (HPLC-UV) was determined. […] Therefore, solutions from solid samples were prepared in different buffer systems with a concentration of 10 mg/mL compound based on the previously determined % purity. HPLC-UV was performed after 2 h of gentle agitation from the supernatant, which was obtained by 20 min of centrifugation at 4500 rpm. […] This analysis also served as starting point (t0) for the stability testing.

[2] = Stability testing in solution, 7 days at 40° C. (% remaining peptide, HPLC-UV); format: physicochemical; details: buffer, 168 h
Description: After that time course, the sample was centrifuged for 20 min at 4500 rpm and 0.2 μL of the supernatant were analysed with HPLC-UV.
For determination of the amount of the remaining peptide, the peak areas of the target compound at t0 and t7 were compared, resulting in “% remaining peptide”, following the equation % remaining peptide=[(peak area peptide t7)×100]/peak area peptide t0.
The stability is expressed as “% remaining peptide”.

[3] = Pharmacokinetic testing in mice (plasma LC/MS); details: mouse, in vivo, sc, 1 mg/kg
Description: Mice are dosed 1 mg/kg subcutaneously (s.c.). The mice are sacrificed and blood samples are collected after 0.25, 0.5, 1, 2, 4, 8, 16 and 24 hours post application. Plasma samples are analyzed after protein precipitation via liquid chromatography mass spectrometry (LC/MS). PK parameters and half-life were calculated using WinonLin Version 5.2.1 (non-compartment model).
Pharmacokinetic profiles were determined as described in Methods.

T1 sequence (P43220 24-463): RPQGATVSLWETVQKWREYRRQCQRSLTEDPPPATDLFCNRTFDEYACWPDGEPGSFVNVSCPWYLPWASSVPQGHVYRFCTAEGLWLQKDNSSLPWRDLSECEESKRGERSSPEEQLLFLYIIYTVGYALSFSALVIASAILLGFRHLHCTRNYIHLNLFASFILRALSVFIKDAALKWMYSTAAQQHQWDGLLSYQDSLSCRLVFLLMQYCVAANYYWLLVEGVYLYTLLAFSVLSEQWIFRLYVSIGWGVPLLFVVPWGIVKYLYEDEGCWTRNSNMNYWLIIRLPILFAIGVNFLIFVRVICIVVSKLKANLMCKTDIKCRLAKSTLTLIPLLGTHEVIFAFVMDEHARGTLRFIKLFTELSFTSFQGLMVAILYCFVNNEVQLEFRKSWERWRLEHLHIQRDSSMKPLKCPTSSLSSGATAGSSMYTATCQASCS

Row | SMILES | EC50 (human GLP-1 receptor) | EC50 (human GIP receptor) | EC50 (human glucagon receptor) | solubility at 2 h ([1]; pH 4.5) | solubility at 2 h ([1]; pH 7.4) | Stability (pH 4.5), % remaining peptide [2] | Stability (pH 7.4), % remaining peptide [2] | Cmax [3] | half-life [3]
1 | CCCCCCCCCCCCCCCC(=O)N[C@@H](CCC(=O)NCCCC[C@H](NC(=O)[C@H](CCC(N)=O)NC(=O)[C@H](CCCCN)NC(=O)[C@H](CO)NC(=O)[C@H](CC(C)C)NC(=O)[C@H](CC(=O)O)NC(=O)[C@H](CO)NC(=O)[C@@H](NC(=O)[C@H](Cc1ccccc1)NC(=O)[C@@H](NC(=O)CNC(=O)[C@H](Cc1c[nH]cn1)NC(=O)[C@@H](CO)NC(=O)[C@@H](N)Cc1c[nH]cn1)[C@@H](C)O)[C@@H](C)O)C(=O)N[C@@H](CCC(=O)O)C(=O)N[C@@H](CCC(=O)O)C(=O)N[C@@H](CCC(=O)O)C(=O)N[C@@H](C)C(=O)N[C@H](C(=O)N[C@@H](CCCNC(=N)N)C(=O)N[C@@H](CC(C)C)C(=O)N[C@@H](Cc1ccccc1)C(=O)N[C@H](C(=O)N[C@@H](CCC(=O)O)C(=O)N[C@@H](Cc1c[nH]c2ccccc12)C(=O)N[C@@H](CC(C)C)C(=O)N[C@@H](CCCCN)C(=O)N[C@@H](C)C(=O)NCC(=O)NCC(=O)N1CCC[C@H]1C(=O)N[C@@H](CO)C(=O)N[C@@H](CO)C(=O)NCC(=O)N[C@@H](C)C(=O)N1CCC[C@H]1C(=O)N1CCC[C@H]1C(=O)N1CCC[C@H]1C(=O)N[C@@H](CO)C(N)=O)[C@@H](C)CC)C(C)C)C(=O)O [compound 14] | 4.1 pM | 437 pM | 58.4 pM |  |  |  |  |  | 
2 | CCCCCCCCCCCCCCCC(=O)N[C@@H](CCC(=O)NCCCC[C@H](NC(=O)[C@H](CCC(N)=O)NC(=O)[C@H](CCCCN)NC(=O)[C@H](CO)NC(=O)[C@H](CC(C)C)NC(=O)[C@H](CC(=O)O)NC(=O)[C@H](CO)NC(=O)[C@@H](NC(=O)[C@H](Cc1ccccc1)NC(=O)[C@@H](NC(=O)CNC(=O)[C@H](Cc1c[nH]cn1)NC(=O)C(C)(C)NC(=O)[C@@H](N)Cc1c[nH]cn1)[C@@H](C)O)[C@@H](C)O)C(=O)N[C@@H](CCC(=O)O)C(=O)N[C@@H](CCC(=O)O)C(=O)N[C@@H](CCC(=O)O)C(=O)N[C@@H](C)C(=O)N[C@H](C(=O)N[C@@H](CCCNC(=N)N)C(=O)N[C@@H](CC(C)C)C(=O)N[C@@H](Cc1ccccc1)C(=O)N[C@H](C(=O)N[C@@H](CCC(=O)O)C(=O)N[C@@H](Cc1c[nH]c2ccccc12)C(=O)N[C@@H](CC(C)C)C(=O)N[C@@H](CCCCN)C(=O)N[C@@H](C)C(=O)NCC(=O)NCC(=O)N1CCC[C@H]1C(=O)N[C@@H](CO)C(=O)N[C@@H](CO)C(=O)NCC(=O)N[C@@H](C)C(=O)N1CCC[C@H]1C(=O)N1CCC[C@H]1C(=O)N1CCC[C@H]1C(=O)N[C@@H](CO)C(N)=O)[C@@H](C)CC)C(C)C)C(=O)O [compound 12] | 3.3 pM | 8.8 pM | 12.8 pM | > 5000 µg/mL | > 5000 µg/mL | 96.7% | 92.0% |  | 
3 | CCCCCCCCCCCCCCCC(=O)N[C@@H](CCC(=O)N[C@@H](CCC(=O)NCCCC[C@H](NC(=O)[C@H](CCC(N)=O)NC(=O)[C@H](CCCCN)NC(=O)[C@H](CO)NC(=O)[C@H](CC(C)C)NC(=O)[C@H](CC(=O)O)NC(=O)[C@H](CO)NC(=O)[C@@H](NC(=O)[C@H](Cc1ccccc1)NC(=O)[C@@H](NC(=O)CNC(=O)[C@H](Cc1c[nH]cn1)NC(=O)C(C)(C)NC(=O)[C@@H](N)Cc1c[nH]cn1)[C@@H](C)O)[C@@H](C)O)C(=O)N[C@@H](CCC(=O)O)C(=O)N[C@@H](CCC(=O)O)C(=O)N[C@@H](CCC(=O)O)C(=O)N[C@@H](C)C(=O)N[C@H](C(=O)N[C@@H](CCCNC(=N)N)C(=O)N[C@@H](CC(C)C)C(=O)N[C@@H](Cc1ccccc1)C(=O)N[C@H](C(=O)N[C@@H](CCC(=O)O)C(=O)N[C@@H](Cc1c[nH]c2ccccc12)C(=O)N[C@@H](CC(C)C)C(=O)N[C@@H](CCCCN)C(=O)N[C@@H](C)C(=O)NCC(=O)NCC(=O)N1CCC[C@H]1C(=O)N[C@@H](CO)C(=O)N[C@@H](CO)C(=O)NCC(=O)N[C@@H](C)C(=O)N1CCC[C@H]1C(=O)N1CCC[C@H]1C(=O)N1CCC[C@H]1C(=O)N[C@@H](CO)C(N)=O)[C@@H](C)CC)C(C)C)C(=O)O)C(=O)O [compound 11] |  | 7.9 pM | 8.9 pM | > 5000 µg/mL | > 5000 µg/mL | 97.5% | 95.8% | 3510 ng/mL | 3.3 h
